According to BindingDB's records for doi:10.1016/j.bmc.2018.08.021 (Zhengzhou University, 2018):

Legend:
[1] = Inhibition of ABCB1 in human SW620/Ad300 cells assessed as potentiation of cisplatin-induced cytotoxicity by measuring cisplatin IC50 at 10 uM after 72 hrs by MTT assay (Rvb = 0.61 +/- 0.03 microM)
[2] = Inhibition of ABCB1 in human SW620/Ad300 cells assessed as potentiation of doxorubicin-induced cytotoxicity by measuring doxorubicin IC50 at 4 uM after 72 hrs by MTT assay (Rvb = 6.15 +/- 0.63 microM)
[3] = Inhibition of ABCB1 (unknown origin) expressed in HEK293T cells assessed as potentiation of paclitaxel-induced cytotoxicity by measuring paclitaxel IC50 at 4 uM after 72 hrs by MTT assay (Rvb = 0.09 +/- 0.02 microM)
[4] = Inhibition of ABCB1 (unknown origin) expressed in HEK293T cells assessed as potentiation of doxorubicin-induced cytotoxicity by measuring doxorubicin IC50 at 20 uM after 72 hrs by MTT assay (Rvb = 1.17 +/- 0.09 microM)
[5] = Inhibition of ABCB1 (unknown origin) expressed in HEK293T cells assessed as potentiation of doxorubicin-induced cytotoxicity by measuring doxorubicin IC50 at 10 uM after 72 hrs by MTT assay (Rvb = 1.17 +/- 0.09 microM)
[6] = Inhibition of ABCB1 in human SW620/Ad300 cells assessed as potentiation of doxorubicin-induced cytotoxicity by measuring doxorubicin IC50 at 20 uM after 72 hrs by MTT assay (Rvb = 6.15 +/- 0.63 microM)
[7] = Inhibition of ABCB1 (unknown origin) expressed in HEK293T cells assessed as potentiation of doxorubicin-induced cytotoxicity by measuring doxorubicin IC50 at 4 uM after 72 hrs by MTT assay (Rvb = 1.17 +/- 0.09 microM)
[8] = Inhibition of ABCB1 (unknown origin) expressed in HEK293T cells assessed as potentiation of cisplatin-induced cytotoxicity by measuring cisplatin IC50 at 4 uM after 72 hrs by MTT assay (Rvb = 7.22 +/- 0.45 microM)
[9] = Inhibition of ABCB1 in human SW620/Ad300 cells assessed as potentiation of cisplatin-induced cytotoxicity by measuring cisplatin IC50 at 4 uM after 72 hrs by MTT assay (Rvb = 0.61 +/- 0.03 microM)
[10] = Inhibition of ABCB1 in human SW620/Ad300 cells assessed as potentiation of cisplatin-induced cytotoxicity by measuring cisplatin IC50 at 20 uM after 72 hrs by MTT assay (Rvb = 0.61 +/- 0.03 microM)
[11] = Inhibition of ABCB1 in human SW620/Ad300 cells assessed as potentiation of paclitaxel-induced cytotoxicity by measuring paclitaxel IC50 at 10 uM after 72 hrs by MTT assay (Rvb = 3.39 +/- 0.84 microM)
[12] = Inhibition of ABCB1 (unknown origin) expressed in HEK293T cells assessed as potentiation of cisplatin-induced cytotoxicity by measuring cisplatin IC50 at 10 uM after 72 hrs by MTT assay (Rvb = 7.22 +/- 0.45 microM)
[13] = Inhibition of ABCB1 (unknown origin) expressed in HEK293T cells assessed as potentiation of paclitaxel-induced cytotoxicity by measuring paclitaxel IC50 at 20 uM after 72 hrs by MTT assay (Rvb = 0.09 +/- 0.02 microM)
[14] = Inhibition of ABCB1 (unknown origin) expressed in HEK293T cells assessed as potentiation of cisplatin-induced cytotoxicity by measuring cisplatin IC50 at 20 uM after 72 hrs by MTT assay (Rvb = 7.22 +/- 0.45 microM)
[15] = Inhibition of ABCB1 in human SW620/Ad300 cells assessed as potentiation of doxorubicin-induced cytotoxicity by measuring doxorubicin IC50 at 10 uM after 72 hrs by MTT assay (Rvb = 6.15 +/- 0.63 microM)
[16] = Inhibition of ABCB1 (unknown origin) expressed in HEK293T cells assessed as potentiation of paclitaxel-induced cytotoxicity by measuring paclitaxel IC50 at 10 uM after 72 hrs by MTT assay (Rvb = 0.09 +/- 0.02 microM)
[17] = Inhibition of ABCB1 in human SW620/Ad300 cells assessed as potentiation of paclitaxel-induced cytotoxicity by measuring paclitaxel IC50 at 4 uM after 72 hrs by MTT assay (Rvb = 3.39 +/- 0.84 microM)
[18] = Inhibition of ABCB1 in human SW620/Ad300 cells assessed as potentiation of paclitaxel-induced cytotoxicity by measuring paclitaxel IC50 at 20 uM after 72 hrs by MTT assay (Rvb = 3.39 +/- 0.84 microM)

## O=c1cc(-c2ccccc2)[nH]c2nc(SCc3nc4ccccc4[nH]3)nn12
[1]
  IC50: 1550 nM
[2]
  IC50: 920 nM
[3]
  IC50: 30 nM
[4]
  IC50: 290 nM
[5]
  IC50: 380 nM
[6]
  IC50: 800 nM
[7]
  IC50: 290 nM
[8]
  IC50: 7100 nM
[9]
  IC50: 1590 nM
[10]
  IC50: 1640 nM
[11]
  IC50: 1470 nM
[12]
  IC50: 8260 nM
[13]
  IC50: 40 nM
[14]
  IC50: 7160 nM
[15]
  IC50: 1280 nM
[16]
  IC50: 50 nM
[17]
  IC50: 830 nM
[18]
  IC50: 660 nM
